From PubChem BioAssay AID2060888 (Molecular Pharmacology Branch, DTP, NCI, 2025)

Tested on: 695427-040-R-J1-PDC complex spheroid viability
Test: Anticancer human tumor 695427-040-R-J1-PDC patient-derived colon adenocarcinoma cell line growth inhibition [RAS]
Details: for IC50: curve of first compound; for viability, T/C: stronger effect = lower value
Text: RAS pathway inhibitors in Combinations in Complex Spheroids
A high-throughput screen of multi-cell type tumor spheroids was designed to identify active combinations of RAS pathway inhibitors and targeted small molecules. Complex spheroids include a stromal component modeled by human endothelial cells (HUVEC) and fibroblasts modeled by human mesenchymal stem cells (MSCs). The concentration ranges selected for each drug and investigational agent were based upon clinically achievable concentrations if the clinical Cmax of the agent was known.
Compounds. The drugs and investigational agents: abemaciclib (NSC768073), cobimetinib (NSC768068), divarasib (GDC6063, NSC841802), docetaxel (NSC628503), GDC-1971 (RLY-1971, NSC841576), gemcitabine (NSC613327), inavolisib (NSC800729), ipatasertib (NSC767898), KB-0742 (NSC834161), MRTX-1133 (NSC836407), osimertinib (NSC779217), RMC-4630 (NSC839698), RMC-6236 (NSC851965), RMC-6291 (NSC852671), Ro-3306 (NSC812927), sapanisertib (NSC764658), SN-38 (NSC673596), staurosporine (NSC755774), SY5609 (NSC837396), and tovorafenib (DAY101, NSC766906), were obtained from the National Cancer Institute (NCI) Developmental Therapeutics Program Chemical Repository. The FDA-approved anticancer drug set is available from the NCI Developmental Therapeutics Program. […] The stock solutions were prepared in dimethyl sulfoxide (DMSO, Sigma-Aldrich, St. Louis, MO, cat. D2650) at 800-fold the tested concentration and stored at -70 degrees C prior to their use. All drugs and investigational agents were tested over a range starting from a high concentration at or near the clinical Cmax and decreasing in half-log increments. If the clinical Cmax for an agent had not been determined, the highest concentration tested was 10 microM.
Cell Culture. All cells were maintained in an incubator at 37 degrees C and 5% CO2 with 95% humidity. The PDC lines were cultured according to standard operating procedures established by the NCI PDMR. All PDCs were thawed and cultured in Matrigel-coated flasks prepared with a working solution of 1X Ham's F-12 nutrient mix, without supplementation (Invitrogen, Waltham, MA, cat. 11765054), 100 U/mL penicillin-streptomycin (Invitrogen, cat. 15140122), and 2.5% Matrigel (Corning Inc., Corning, NY, cat. 354248) for the first three passages. The 362531-283-R-J2-PDC and 782815-120-R-J1-PDC lines were cultured in 6C/Colon 1B media, which includes advanced DMEM/F-12 (Thermo Fisher Scientific, cat. 12634028), 10 mM HEPES (Thermo Fisher Scientific, cat. 15630080), 1X GlutaMAX supplement (Thermo Fisher Scientific, cat. 35050061), 0.1 mg/mL primocin (InvivoGen, San Diego, CA, cat. ant-pm-2), 10% defined fetal bovine serum, heat inactivated (HyClone Laboratories Inc., Logan, UT, cat. SH30070.03HI), 50% L-WRN conditioned media (ATCC, cat. CRL-3276), 1.25 mM N-Acetyl-L-cysteine (Sigma-Aldrich, cat. A9165), 10 mM nicotinamide (Sigma-Aldrich, cat. N0636), 1X B-27 supplement (Thermo Fisher Scientific, cat. 17504044), 1X N-2 supplement (Thermo Fisher Scientific, cat. 17502048), 50 ng/mL human EGF (Thermo Fisher Scientific, cat. PHG0311), and 10 microM Y-27632 dihydrochloride (Tocris Bioscience, cat. 1254). The K12877-001-R-J1-PDC line was cultured in 6I media, which includes all 6C/Colon 1B media plus 10 ng/mL human FGF-10 (PeproTech, cat. 100-26), 1 ng/mL human FGF-2 (PeproTech, cat. 100-18B), 1 µM prostaglandin E2 (Tocris Bioscience, cat. 2296), […] hydrocortisone (Sigma-Aldrich, cat. H4001), and […] bovine insulin (Sigma-Aldrich, cat. I6634). The K86415-001-R-J1-PDC line was cultured in 6D media, which includes all 6C/Colon 1B media components minus the L-WRN conditioned media. The 485176-168-R4-J1-PDC was cultured in PANC media, which includes all 6C/Colon 1B media plus 100 ng/mL human FGF-10 (PeproTech, cat. 100-26), 500 nM SB-431542 (Selleckchem, cat. S1067), and 10 nM gastrin (Tocris Bioscience, cat. 3006). […]
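Also: viability read after seven days of drug exposure.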
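For viability, T/C in this document: 100% = DMSO vehicle control viability.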

**Q.** Which IC50 (second compound 0.00316 µM) does the source give for `CCN1CCN(Cc2ccc(Nc3ncc(F)c(-c4cc(F)c5nc(C)n(C(C)C)c5c4)n3)nc2)CC1` + C=CC(=O)N1CCN(c2nc(OCC3CCCN3C)nc3c(F)c(-c4nc(N)cc(C)c4C(F)(F)F)c(Cl)cc23)C(C)C1 here?
**A.** Its IC50 is > 1000 nM.

**Q.** What about the IC50 (second compound 0.01 µM) of the same compound?
**A.** Its IC50 is > 1000 nM.

**Q.** What about the IC50 (second compound 0.0316 µM) of the same compound?
**A.** The IC50 was > 1000 nM.

**Q.** And the IC50 (second compound 0.1 µM)?
**A.** The IC50 was > 1000 nM.

**Q.** What about the IC50 (second compound 0.316 µM) of the same compound?
**A.** The IC50 was > 1000 nM.

**Q.** What about the IC50 (second compound 1 µM) of the same compound?
**A.** The IC50 was > 1000 nM.

**Q.** What about the viability, T/C (second compound 0.00316 µM, first compound 0.00316 µM) of the same compound?
**A.** Its viability, T/C is 93%.

**Q.** And the viability, T/C (second compound 0.00316 µM, first compound 0.01 µM)?
**A.** Its viability, T/C is 88.4%.

**Q.** What about the viability, T/C (second compound 0.00316 µM, first compound 0.0316 µM) of the same compound?
**A.** Its viability, T/C is 88.5%.

**Q.** What about the viability, T/C (second compound 0.00316 µM, first compound 0.1 µM) of the same compound?
**A.** Its viability, T/C is 88.8%.

**Q.** And the viability, T/C (second compound 0.00316 µM, first compound 0.316 µM)?
**A.** The viability, T/C was 101%.

**Q.** What about the viability, T/C (second compound 0.00316 µM, first compound 1 µM) of the same compound?
**A.** Its viability, T/C is 103%.

**Q.** And the viability, T/C (second compound 0.01 µM, first compound 0.00316 µM)?
**A.** The viability, T/C was 107%.

**Q.** What about the viability, T/C (second compound 0.01 µM, first compound 0.01 µM) of the same compound?
**A.** The viability, T/C was 92.2%.

**Q.** What about the viability, T/C (second compound 0.01 µM, first compound 0.0316 µM) of the same compound?
**A.** Its viability, T/C is 94.1%.

**Q.** What about the viability, T/C (second compound 0.01 µM, first compound 0.1 µM) of the same compound?
**A.** The viability, T/C was 92.4%.

**Q.** What about the viability, T/C (second compound 0.01 µM, first compound 0.316 µM) of the same compound?
**A.** Its viability, T/C is 101%.

**Q.** What about the viability, T/C (second compound 0.01 µM, first compound 1 µM) of the same compound?
**A.** Its viability, T/C is 108%.

**Q.** What about the viability, T/C (second compound 0.0316 µM, first compound 0.00316 µM) of the same compound?
**A.** The viability, T/C was 106%.

**Q.** And the viability, T/C (second compound 0.0316 µM, first compound 0.01 µM)?
**A.** The viability, T/C was 96.3%.

**Q.** And the viability, T/C (second compound 0.0316 µM, first compound 0.0316 µM)?
**A.** Its viability, T/C is 95.3%.

**Q.** And the viability, T/C (second compound 0.0316 µM, first compound 0.1 µM)?
**A.** The viability, T/C was 91.6%.

**Q.** And the viability, T/C (second compound 0.0316 µM, first compound 0.316 µM)?
**A.** Its viability, T/C is 109%.

**Q.** What about the viability, T/C (second compound 0.0316 µM, first compound 1 µM) of the same compound?
**A.** The viability, T/C was 105%.

**Q.** And the viability, T/C (second compound 0.1 µM, first compound 0.00316 µM)?
**A.** Its viability, T/C is 89%.

**Q.** And the viability, T/C (second compound 0.1 µM, first compound 0.01 µM)?
**A.** Its viability, T/C is 102%.

**Q.** And the viability, T/C (second compound 0.1 µM, first compound 0.0316 µM)?
**A.** Its viability, T/C is 90.3%.

**Q.** What about the viability, T/C (second compound 0.1 µM, first compound 0.1 µM) of the same compound?
**A.** Its viability, T/C is 92.1%.

**Q.** And the viability, T/C (second compound 0.1 µM, first compound 0.316 µM)?
**A.** Its viability, T/C is 107%.

**Q.** And the viability, T/C (second compound 0.1 µM, first compound 1 µM)?
**A.** The viability, T/C was 110%.

**Q.** What about the viability, T/C (second compound 0.316 µM, first compound 0.00316 µM) of the same compound?
**A.** The viability, T/C was 95.5%.

**Q.** And the viability, T/C (second compound 0.316 µM, first compound 0.01 µM)?
**A.** The viability, T/C was 94.3%.

**Q.** And the viability, T/C (second compound 0.316 µM, first compound 0.0316 µM)?
**A.** Its viability, T/C is 96.7%.

**Q.** And the viability, T/C (second compound 0.316 µM, first compound 0.1 µM)?
**A.** Its viability, T/C is 94.7%.

**Q.** And the viability, T/C (second compound 0.316 µM, first compound 0.316 µM)?
**A.** The viability, T/C was 101%.

**Q.** And the viability, T/C (second compound 0.316 µM, first compound 1 µM)?
**A.** The viability, T/C was 97%.

**Q.** And the viability, T/C (second compound 1 µM, first compound 0.00316 µM)?
**A.** The viability, T/C was 94.8%.

**Q.** And the viability, T/C (second compound 1 µM, first compound 0.01 µM)?
**A.** Its viability, T/C is 85.6%.

**Q.** And the viability, T/C (second compound 1 µM, first compound 0.0316 µM)?
**A.** Its viability, T/C is 93.7%.

**Q.** What about the viability, T/C (second compound 1 µM, first compound 0.1 µM) of the same compound?
**A.** The viability, T/C was 96.6%.

**Q.** And the viability, T/C (second compound 1 µM, first compound 0.316 µM)?
**A.** The viability, T/C was 99%.

**Q.** And the viability, T/C (second compound 1 µM, first compound 1 µM)?
**A.** Its viability, T/C is 94.8%.
